From ChEMBL document CHEMBL2331429, “Purgin II, a resin glycoside ester-type dimer and inhibitor of multidrug efflux pumps from Ipomoea purga” (J Nat Prod, 2013)
The source made the active and inactive calls. The calls are words filed in the database; no cut-off is given here.

Legend:
[1] = test system: MCF7; assay: Potentiation of vinblastine-induced cytotoxicity in human MCF7 cells at 25 ug/ml after 72 hrs by SRB assay; assay type: functional
[2] = test system: MCF7; assay: Cytotoxicity against human vinblastine-resistant MCF7 cells after 72 hrs by SRB assay; assay type: cell-based; details: MCF7, 72 h
[3] = target: T1, ATP-dependent translocase ABCB1 (Homo sapiens, UniProt P08183); assay: Inhibition of p-glycoprotein in human vinblastine-resistant MCF7 cells cultured in vinblastine-free medium assessed as potentiation of vinblastine-induced cytotoxicity at 25 ug/ml after 72 hrs by SRB assay; assay type: cell-based; details: mcf7, 72 h
T1 sequence (P08183 whole entry): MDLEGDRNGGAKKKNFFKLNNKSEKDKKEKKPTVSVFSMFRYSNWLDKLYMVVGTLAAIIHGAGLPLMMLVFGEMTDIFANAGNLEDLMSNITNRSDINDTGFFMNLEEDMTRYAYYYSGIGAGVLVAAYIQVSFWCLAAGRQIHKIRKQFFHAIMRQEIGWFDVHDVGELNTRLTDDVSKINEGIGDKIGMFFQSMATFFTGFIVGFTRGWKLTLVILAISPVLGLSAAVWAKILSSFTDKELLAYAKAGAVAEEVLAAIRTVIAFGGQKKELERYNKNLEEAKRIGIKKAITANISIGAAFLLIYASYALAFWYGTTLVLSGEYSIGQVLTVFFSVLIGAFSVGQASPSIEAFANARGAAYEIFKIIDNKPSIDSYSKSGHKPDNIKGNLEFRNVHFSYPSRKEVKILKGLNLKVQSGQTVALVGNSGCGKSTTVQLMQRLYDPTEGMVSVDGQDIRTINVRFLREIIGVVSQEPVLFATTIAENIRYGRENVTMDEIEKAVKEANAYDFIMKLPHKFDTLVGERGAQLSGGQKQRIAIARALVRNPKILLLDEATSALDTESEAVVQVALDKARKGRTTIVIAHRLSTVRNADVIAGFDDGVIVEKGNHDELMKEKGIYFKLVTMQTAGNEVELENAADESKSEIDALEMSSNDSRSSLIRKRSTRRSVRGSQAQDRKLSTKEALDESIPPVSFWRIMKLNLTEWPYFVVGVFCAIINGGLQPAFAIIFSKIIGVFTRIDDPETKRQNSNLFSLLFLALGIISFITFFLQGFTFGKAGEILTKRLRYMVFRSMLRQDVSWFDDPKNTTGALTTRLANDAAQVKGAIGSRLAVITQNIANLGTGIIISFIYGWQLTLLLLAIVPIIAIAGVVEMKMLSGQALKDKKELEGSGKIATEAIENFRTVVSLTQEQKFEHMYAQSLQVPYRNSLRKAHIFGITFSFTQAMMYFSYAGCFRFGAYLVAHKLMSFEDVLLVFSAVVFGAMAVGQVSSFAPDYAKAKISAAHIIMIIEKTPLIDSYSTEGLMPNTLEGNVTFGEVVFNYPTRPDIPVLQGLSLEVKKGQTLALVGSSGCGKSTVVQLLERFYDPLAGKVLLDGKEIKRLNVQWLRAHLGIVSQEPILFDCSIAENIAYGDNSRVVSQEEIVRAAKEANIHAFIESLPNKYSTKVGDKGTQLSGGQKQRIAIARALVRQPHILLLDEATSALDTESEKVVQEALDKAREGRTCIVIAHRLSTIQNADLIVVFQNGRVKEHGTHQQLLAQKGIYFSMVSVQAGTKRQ

[4] = target: T1, ATP-dependent translocase ABCB1; assay: Inhibition of p-glycoprotein in human vinblastine-resistant MCF7 cells cultured in medium containing vinblastine assessed as potentiation of vinblastine-induced cytotoxicity at 25 ug/ml after 72 hrs by SRB assay; assay type: cell-based; details: mcf7, 72 h
[5] = test system: MCF7; assay: Cytotoxicity against human MCF7 cells after 72 hrs by SRB assay; assay type: cell-based; details: MCF7, 72 h
[6] = target: T1, ATP-dependent translocase ABCB1; assay: Inhibition of p-glycoprotein in human vinblastine-resistant MCF7 cells assessed as increase of rhodamine-123 accumulation at 5 to 25 ug/ml measured up to 50 mins; assay type: cell-based; details: mcf7, 50 min
[7] = test system: MCF7; assay: Reversible inhibition of p-glycoprotein in human vinblastine-resistant MCF7 cells assessed as increase of rhodamine-123 accumulation at 5 to 25 ug/ml measured up to 50 mins; assay type: cell-based
[8] = target: T1, ATP-dependent translocase ABCB1; assay: Inhibition of p-glycoprotein in human vinblastine-resistant MCF7 cells assessed as increase of rhodamine-123 accumulation at 5 ug/ml measured up to 50 mins; assay type: cell-based; details: mcf7, 50 min
[9] = target: T1, ATP-dependent translocase ABCB1; assay: Inhibition of p-glycoprotein in human vinblastine-resistant MCF7 cells cultured in vinblastine-free medium assessed as potentiation of vinblastine-induced cytotoxicity at 5 ug/ml after 72 hrs by SRB assay; assay type: cell-based; details: mcf7, 72 h
[10] = target: T1, ATP-dependent translocase ABCB1; assay: Inhibition of p-glycoprotein in human vinblastine-resistant MCF7 cells cultured in medium containing vinblastine assessed as potentiation of vinblastine-induced cytotoxicity at 5 ug/ml after 72 hrs by SRB assay; assay type: cell-based; details: mcf7, 72 h

inhibition (INH) [6]	inhibition (INH) [8]	Compound	fold change (FC) [1]	IC50 [2] [µg/mL]	fold change (FC) [3]	fold change (FC) [4]	IC50 [5] [µg/mL]	inhibition [7]	fold change (FC) [9]	fold change (FC) [10]
		CCCCCCCCCC(=O)O[C@H]1[C@H](O[C@@H]2[C@@H](O)[C@@H](O)[C@H](O[C@H]3[C@H](O[C@@H](CCCCC)CCCCCCCCCC(=O)O[C@H]4[C@H](O)[C@@H](O)[C@H](O[C@@H]5[C@@H](O[C@@H]6O[C@@H](C)[C@H](OC(=O)CCCCC)[C@@H](OC(=O)/C=C/c7ccccc7)[C@H]6O)[C@H](C)O[C@@H](O[C@@H]6[C@@H](O)[C@H]7OC(=O)CCCCCCCCC[C@H](CCCCC)O[C@@H]8O[C@H](CO)[C@@H](O)[C@H](O)[C@H]8O[C@@H]7O[C@H]6C)[C@@H]5OC(=O)CCCCCCCCC)O[C@@H]4CO)O[C@H](CO)[C@@H](O)[C@@H]3O)O[C@H]2C)O[C@@H](C)[C@H](O[C@@H]2O[C@@H](C)[C@H](OC(=O)CCCCC)[C@@H](OC(=O)/C=C/c3ccccc3)[C@H]2O)[C@H]1O[C@@H]1O[C@H](CO)[C@@H](O)[C@H](O)[C@H]1O [PURGIN III]	4.7	> 25	6.5	6.4	> 25			
Active		CCCCCCCCCC(=O)O[C@H]1[C@H](O[C@@H]2[C@@H](O)[C@@H](O)[C@H](O[C@H]3[C@H](O[C@@H](CCCCC)CCCCCCCCCC(=O)O[C@H]4[C@H](O)[C@@H](O)[C@H](O[C@@H]5[C@@H](O[C@@H]6O[C@@H](C)[C@H](OC(=O)[C@@H](C)CC)[C@@H](OC(=O)/C=C/c7ccccc7)[C@H]6O)[C@H](C)O[C@@H](O[C@@H]6[C@@H](O)[C@H]7OC(=O)CCCCCCCCC[C@H](CCCCC)O[C@@H]8O[C@H](CO)[C@@H](O)[C@H](O)[C@H]8O[C@@H]7O[C@H]6C)[C@@H]5OC(=O)CCCCCCCCC)O[C@@H]4CO)O[C@H](CO)[C@@H](O)[C@@H]3O)O[C@H]2C)O[C@@H](C)[C@H](O[C@@H]2O[C@@H](C)[C@H](OC(=O)[C@@H](C)CC)[C@@H](OC(=O)/C=C/c3ccccc3)[C@H]2O)[C@H]1O[C@@H]1O[C@H](CO)[C@@H](O)[C@H](O)[C@H]1O [PURGIN II]	>73.4	> 25	> 2140.6	> 1687.5	> 25	Active		
		CCCCCCCCCCCC(=O)O[C@H]1[C@H](O[C@@H]2[C@@H](O)[C@@H](O)[C@H](O[C@H]3[C@H](O[C@@H](CCCCC)CCCCCCCCCC(=O)O[C@H]4[C@H](O)[C@@H](O)[C@H](O[C@@H]5[C@@H](O[C@@H]6O[C@@H](C)[C@H](OC(=O)[C@@H](C)CC)[C@@H](O)[C@H]6OC(=O)/C=C/c6ccccc6)[C@H](C)O[C@@H](O[C@@H]6[C@@H](O)[C@H]7OC(=O)CCCCCCCCC[C@H](CCCCC)O[C@@H]8O[C@H](C)[C@H](O)[C@H](O)[C@H]8O[C@@H]7O[C@H]6C)[C@@H]5OC(=O)CCCCCCCCCCC)O[C@@H]4CO)O[C@H](C)[C@H](O)[C@@H]3O)O[C@H]2C)O[C@@H](C)[C@H](O[C@@H]2O[C@@H](C)[C@H](OC(=O)[C@@H](C)CC)[C@@H](OC(=O)/C=C/c3ccccc3)[C@H]2O)[C@H]1O[C@@H]1O[C@H](CO)[C@@H](O)[C@H](O)[C@H]1O [PURGIN I]	2.9	> 25	3.8	4.7	> 25			
		CCCCCCCCCC(=O)O[C@H]1[C@H](O[C@@H]2[C@@H](O)[C@H]3OC(=O)CCCCCCCCC[C@H](CCCCC)O[C@@H]4O[C@H](C)[C@H](O)[C@H](O)[C@H]4O[C@@H]3O[C@H]2C)O[C@@H](C)[C@H](O[C@@H]2O[C@@H](C)[C@H](OC(=O)CCCCC)[C@@H](OC(=O)/C=C/c3ccccc3)[C@H]2O)[C@H]1O[C@@H]1O[C@H](CO)[C@@H](O)[C@H](O)[C@H]1O [PURGINOSIDE II]	1.4	> 25	1.4	1.2	> 25			
		CCCCCCCCCC(=O)O[C@H]1[C@H](O[C@@H]2[C@@H](O)[C@H]3OC(=O)CCCCCCCCC[C@H](CCCCC)O[C@@H]4O[C@H](C)[C@H](O)[C@H](O)[C@H]4O[C@@H]3O[C@H]2C)O[C@@H](C)[C@H](O[C@@H]2O[C@@H](C)[C@H](OC(=O)CCCCC)[C@@H](O)[C@H]2O)[C@H]1O[C@@H]1O[C@H](CO)[C@@H](O)[C@H](O)[C@H]1O [PURGINOSIDE IV]	2.5	> 25	3	3.3	> 25			
		CCCCCCCCCC(=O)O[C@H]1[C@H](O[C@@H]2[C@@H](O)[C@H]3OC(=O)CCCCCCCCC[C@H](CCCCC)O[C@@H]4O[C@H](C)[C@H](O)[C@H](O)[C@H]4O[C@@H]3O[C@H]2C)O[C@@H](C)[C@H](O[C@@H]2O[C@@H](C)[C@H](OC(=O)[C@@H](C)CC)[C@@H](O)[C@H]2OC(=O)/C=C/c2ccccc2)[C@H]1O[C@@H]1O[C@H](CO)[C@@H](O)[C@H](O)[C@H]1O [PURGINOSIDE I]	0.8	> 25	2.9	2.8	> 25			
	Active	COC(=O)[C@H]1[C@H]2C[C@@H]3c4[nH]c5cc(OC)ccc5c4CCN3C[C@H]2C[C@@H](OC(=O)c2cc(OC)c(OC)c(OC)c2)[C@@H]1OC [RESERPINE]							4.4	29.2
